Measurements reported in PMC6266305 (Nutrients, 2018).

How the values were obtained:
Caco-2 cells = assay: Overall in vitro bioavailability: basolateral amount in Caco-2 cells relative to the initial amount in the test meal before in vitro digestion; format: in vitro ADME, human; settings: mean ± SD (n = 4)
Description: The in vitro digestion was carried out as previously described. […] The mixture was dispersed with Ultra-Turrax® (Ika) and artificial saliva (2.5 mL, pH 7) was added to the mixture. The sample was incubated for 10 min at 37 °C in a shaking incubator. […] Then, porcine pepsin (2 mL, 40 mg/mL in 0.1 M HCl) was added and the homogenate was incubated at 37 °C in a shaking incubator for 30 min simulating the gastric step. […] Samples were incubated in a shaking incubator at 37 °C for 30 min to complete the digestion process. The final mixture representing the digesta was centrifuged (2500 g for 1 h at 10 °C) to separate the aqueous fraction. […] The cytotoxicity on Caco-2 cells of the aqueous fractions from in vitro digestions was first assessed to determine the suitable dilution required before adding the aqueous fractions to the apical side of cell monolayers. […] To avoid any interference with DMEM or serum components, the aqueous fractions were diluted in HBSS. Caco-2 cells also received HBSS in both chambers 12 h before the experiments. At the beginning of each experiment, cells were rinsed twice with 1 mL of PBS. […] Cells were then rinsed twice with 1mL of PBS and scrapped in 0.5 mL of iced-cold PBS. All analyses were run in quadruplicate and samples were stored at −80 °C until further analysis. Results were expressed as means ± standard deviations. Differences between means were assessed using ANOVA followed by the post-hoc Tukey test for parametric data. […] Two parameters were assessed to express the bioavailability: a) the ratio between the mass of phenolic compounds recovered at the basolateral side and the initial mass added to the apical side, b) the ratio between the mass of phenolic compounds recovered at the basolateral side and the initial mass added to the meal.

[1] = set-up: method as in PMID 27355793; settings: Tyr from olives; cited from earlier work

Row | Compound | Bioavailability in Caco-2 cells as percentage of initial amount in the test meal before in vitro digestion (bioaccessibility × absorption by Caco-2 cells) (Caco-2 cells; from alperujo-CD) | Bioavailability in Caco-2 cells as percentage of initial amount in the test meal before in vitro digestion (bioaccessibility × absorption by Caco-2 cells) (Caco-2 cells; from alperujo-CD, listed as tyrosol) [%] | Bioavailability in Caco-2 cells as percentage of initial amount in the test meal before in vitro digestion (bioaccessibility × absorption by Caco-2 cells) (Caco-2 cells; from alperujo) | Bioavailability in Caco-2 cells as percentage of initial amount in the test meal before in vitro digestion (bioaccessibility × absorption by Caco-2 cells) (Caco-2 cells; from alperujo, listed as tyrosol) [%] | Higher bioaccessibility of Tyr than HT [1] [%] | Bioavailability in Caco-2 cells as percentage of initial amount in the test meal before in vitro digestion (bioaccessibility × absorption by Caco-2 cells) (Caco-2 cells; from alperujo-CD, listed as p-coumaric acid) [%] | Bioavailability in Caco-2 cells as percentage of initial amount in the test meal before in vitro digestion (bioaccessibility × absorption by Caco-2 cells) (Caco-2 cells; from alperujo, listed as p-coumaric acid) [%]
1 | OCCc1ccc(O)cc1 [Tyr, tyrosol] | 16.8 ± 0.5 ^a % | 16.8 ± 0.5 | 16.2 ± 0.6 ^a % | 16.2 ± 0.6 | 16 | – | –
2 | O=C(O)/C=C/c1ccc(O)cc1 [p-Cm, p-coumaric acid] | 37.2 ± 3.2 ^a % | – | 32.0 ± 3.2 ^a % | – | – | 37.2 ± 3.2 | 32.0 ± 3.2
